Assay results: patent US20230242526A1 (Zentaur Therapeutics International Limited, priority 2020, published 2023)

What was measured:
in vitro [1] = conditions: mouse, microsomes, pH 7.4, t1/2 mouse
Procedure: (§1) Human liver microsomes (cat. No. 452161), mouse liver microsomes (cat. No. 452701), were purchased from Corning.
(§2) Samples were analyzed using LC-MS/MS using a SCIEX API 4000 mass spectrometer coupled with Agilent HPLC analytical system. After separation on a ZORBAX XDB-C18 column (5 μm, 50×2.1 mm, column No. 50-282) using an acetonitrile-water gradient system, peaks were analyzed by mass spectroscopy (MS) using ESI ionization in Q1 and Q3 scan mode.
(§3) The LC and MS are all controlled by Analyst software.
(§4) The liver microsomes were incubated with 1.0 μM of the testing compound at 37° C. The incubation mixture contained 100 mM PBS buffer (pH=7.4), 3 mM MgCl2 and 1 mM NADPH. The concentration of liver microsome in the incubation mixture was 0.5 mg/mL for testing compound, and 0.2 mg/mL for MDZ and the total volume is 0.2 mL. […] Aliquots were withdrawn at time points of 0 min, 5 min and 20 min for MDZ. The reactions were terminated by transferring the aliquots to a methanol solution containing the internal standard […] for analytical quantification. The quenched samples were analyzed by LC-MS/MS. The incubations were carried out in duplicates. The metabolic stability of the testing compounds by the liver microsomes of human and mice is expressed as elimination half-life (t1/2). The results are shown as the means of duplicate determinations±SD.

HCC1806 s.c. xenografts = experiment: HCC1806 s.c. breast cancer xenograft efficacy (tumor volume, relative tumor volume, tumor weight, TGI); format: in vivo, BALB/c nude mice; conditions: 30 mg/kg P.O. BID; for Tumor Growth Inhibition D3 / Tumor Growth Inhibition D7 / Tumor Growth Inhibition D10 / Tumor Growth Inhibition D14 / Tumor Growth Inhibition D17 / Tumor Growth Inhibition D21: vs control vehicle; for Tumor Growth Inhibition D3 / Tumor volume D3: day 3; for Tumor Growth Inhibition D7 / Tumor volume D7: day 7; for Tumor Growth Inhibition D10 / Tumor volume D10: day 10; for Tumor Growth Inhibition D14 / Tumor volume D14: day 14; for Tumor Growth Inhibition D17 / Tumor volume D17: day 17; for Tumor Growth Inhibition D21 / Tumor volume D21: day 21; for Tumor volume D0 / Tumor volume D3 / Tumor volume D7 / Tumor volume D10 / Tumor volume D14 / Tumor volume D17 / Tumor volume D21 / Tumor weight: group mean; for Tumor volume D0: day 0; for Tumor weight: end of the study (Day 21)
Procedure: The in vivo potency of anti-tumor activities of Comp. 4, Comp. 37, Comp. 5, Comp. 28, Comp. 163, and Comp. 164 have been evaluated on the growth of HCC1806 s.c. xenografts in BALB/c nude mice.
The testing compounds Comp. 4, Comp. 37, Comp. 5, Comp. 28, Comp. 163, and Comp. 164 were prepared according the synthetic routes set forth in the above Examples. The testing formulations for compounds Comp. 4, Comp. 37, Comp. 5, Comp. 28, Comp. 163, and Comp. 164 were prepared as liquid formulation in a liquid vehicle containing 0.1% Tween-80 (purchased form Sinopharm Chemical Reagent Co., Ltd, Lot No. 20190322), 0.5% methyl cellulose (purchased from SIGMA, Lot No. SLBR8963V) in water.
A total of 42+8 female BALB/c nude mice were ordered from Shanghai LC Laboratory Animal Co. Ltd. The animals were specific pathogen free and approximately 4-5 weeks old upon arrival at PharmaLegacy Laboratories.
HCC1806 cell cultures were maintained at 37° C. under 5% CO2 in RPMI-1640 medium supplemented with 10% FBS and were subsequently cultured within 10 passages before inoculated into the mice.
(§5) When the average tumor volume reached 80-120 mm^3, 42 tumor-bearing mice were randomized into 7 groups (6 mice per group) according to tumor volume. The grouping day was defined as Day 0. Treatment was applied immediately after grouping animals on the same day.
(§6) The body weight of the testing animals were measured twice a week after grouping. Tumor volumes by the length and width of the tumor were measured by electric calipers and the tumor volume (V) was calculated as follows: V=(length×width^2)/2. The individual relative tumor volume (RTV) was calculated as follows: RTV=Vt/V0, where Vt was the volume on each day, and V0 was the volume at the beginning of the treatment.
Tumors were collected at the end of the study (Day 21), the mice were sacrificed. Tumor was collected, weighed, photographed.
(§7) Results were expressed as mean±S.E.M. Comparisons between two groups were made by corresponding test, p<0.05 were considered to be significant.

in vitro [2] = conditions: human, microsomes, pH 7.4, t1/2 human
Procedure: as §1, §2, §3, §4

[3] = Body weight in the HCC1806 xenograft study; format: in vivo, BALB/c nude mice; conditions: 30 mg/kg P.O. BID; for Body weight D0 / Body weight D3 / Body weight D7 / Body weight D10 / Body weight D14 / Body weight D17 / Body weight D21: group mean; for Body weight D0: day 0; for Body weight D3: day 3; for Body weight D7: day 7; for Body weight D10: day 10; for Body weight D14: day 14; for Body weight D17: day 17; for Body weight D21: day 21
Procedure: as §5, §6, §7

CDK9/Cyclin T1 = CDK9/Cyclin T1 (Homo sapiens, UniProt P50750); experiment: CDK9/Cyclin T1 kinase assay; format: biochemical
Sequence of CDK9/Cyclin T1 (P50750 whole entry): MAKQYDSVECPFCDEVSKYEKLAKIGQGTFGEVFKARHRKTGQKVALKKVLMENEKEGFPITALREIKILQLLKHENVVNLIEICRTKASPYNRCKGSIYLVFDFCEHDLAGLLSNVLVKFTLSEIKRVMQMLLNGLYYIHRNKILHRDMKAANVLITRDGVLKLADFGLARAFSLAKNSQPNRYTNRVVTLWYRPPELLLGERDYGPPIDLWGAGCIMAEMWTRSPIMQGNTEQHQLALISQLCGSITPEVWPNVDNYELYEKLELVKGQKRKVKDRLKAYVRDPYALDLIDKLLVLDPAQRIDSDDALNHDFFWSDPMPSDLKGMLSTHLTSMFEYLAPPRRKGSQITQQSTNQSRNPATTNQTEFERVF
Sequence of CDK9/Cyclin T1 (O60563 whole entry partner): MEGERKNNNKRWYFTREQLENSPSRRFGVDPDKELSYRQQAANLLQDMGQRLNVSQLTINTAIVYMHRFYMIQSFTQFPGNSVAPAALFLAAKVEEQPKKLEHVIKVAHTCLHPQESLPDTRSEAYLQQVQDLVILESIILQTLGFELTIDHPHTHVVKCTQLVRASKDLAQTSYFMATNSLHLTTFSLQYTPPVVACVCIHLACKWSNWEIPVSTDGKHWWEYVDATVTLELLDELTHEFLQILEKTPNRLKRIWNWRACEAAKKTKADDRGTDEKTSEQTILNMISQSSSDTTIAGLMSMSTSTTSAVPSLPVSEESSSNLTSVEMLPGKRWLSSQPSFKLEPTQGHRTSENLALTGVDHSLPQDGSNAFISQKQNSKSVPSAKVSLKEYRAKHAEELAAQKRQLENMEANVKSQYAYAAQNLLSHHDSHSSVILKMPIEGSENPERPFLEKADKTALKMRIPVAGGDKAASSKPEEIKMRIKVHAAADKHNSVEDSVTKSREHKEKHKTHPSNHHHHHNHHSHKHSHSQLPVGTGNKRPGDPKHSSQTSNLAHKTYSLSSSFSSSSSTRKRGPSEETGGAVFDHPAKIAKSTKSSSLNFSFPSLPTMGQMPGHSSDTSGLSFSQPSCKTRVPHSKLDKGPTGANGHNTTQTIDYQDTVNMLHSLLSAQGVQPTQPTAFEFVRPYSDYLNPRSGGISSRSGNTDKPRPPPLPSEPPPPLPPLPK
Procedure: (1). Recombinant enzymes CDK1, CDK2, CDK4, CDK6, CDK9, cyclin B1, cyclin A2, cyclin D3, cyclin E1, cyclin T1 were cloned and purified at Wuxi Biortus Biochemistry Co. Ltd.
(8) Peptide substrate-CDK9 (Ahx-GSRTPMY-NH2, Scilight-Peptide, Cat. C0769102).
The test compounds were dissolved and diluted in DMSO. A stock DMSO solution of the test compound of the invention was prepared by dissolving the compound in DMSO to form a 10 mM solution.
2 μL of testing compound solutions and 5 μL of enzyme solution were added into the 384-well microplate followed by a 10 minute incubation. The reaction was then initiated by the addition of 5 μL of peptide substrate and ATP mixture solution and incubated at 27° C. for 30 minutes. The enzyme reaction in each well was terminated by adding 4 μL of 120 mM EDTA solution. Each assay was carried out in duplicates.
DMSO was used as negative control (0%) for enzyme activity. 20 μM Staurosporine was used as positive control (100%) for enzyme activity.
Plates were read for fluorescence on a Caliper EZ Reader II by separating the fluorescent labeled substrate from the enzyme phosphorylation product by electrophoresis. Data were collected and analyzed using GraphPad Prism version 6.0 software.
Dose-response curves were plotted from inhibition data generated, each in duplicate, from 10 point serial dilutions of inhibitory compounds. Concentration of compound was plotted against % kinase activity. To generate IC50 values, the dose-response curves were then fitted to a standard sigmoidal curve and IC50 values were derived by nonlinear regression analysis.

| Structure (SMILES) | half-life at 1 μM (in vitro [1]) [h] | Tumor Growth Inhibition D3 (HCC1806 s.c. xenografts) [%] | Tumor Growth Inhibition D7 (HCC1806 s.c. xenografts) [%] | Tumor Growth Inhibition D10 (HCC1806 s.c. xenografts) [%] | Tumor Growth Inhibition D14 (HCC1806 s.c. xenografts) [%] | Tumor Growth Inhibition D17 (HCC1806 s.c. xenografts) [%] | Tumor Growth Inhibition D21 (HCC1806 s.c. xenografts) [%] | Tumor volume D0 (HCC1806 s.c. xenografts) [mm^3] | Tumor volume D3 (HCC1806 s.c. xenografts) [mm^3] | Tumor volume D7 (HCC1806 s.c. xenografts) [mm^3] | Tumor volume D10 (HCC1806 s.c. xenografts) [mm^3] | Tumor volume D14 (HCC1806 s.c. xenografts) [mm^3] | Tumor volume D17 (HCC1806 s.c. xenografts) [mm^3] | Tumor volume D21 (HCC1806 s.c. xenografts) [mm^3] | Tumor weight (HCC1806 s.c. xenografts) [g] | half-life at 1 μM (in vitro [2]) [h] | Body weight D0 [3] [g] | Body weight D3 [3] [g] | Body weight D7 [3] [g] | Body weight D10 [3] [g] | further results |
| --- | --- | --- | --- | --- | --- | --- | --- | --- | --- | --- | --- | --- | --- | --- | --- | --- | --- | --- | --- | --- | --- |
| Cc1cc2cnc(NC3CCN(S(C)(=O)=O)CC3)nc2n([C@@H]2CCC[C@@]2(C)O)c1=O [Comp. 4, (−)-8-(2-hydroxy-2-methylcyclopentyl)-6-methyl-2-((1-(methylsulfonyl)piperidin-4-yl)amino)pyrido[2,3-d]pyrimidin-7(8H)-one, reference compound] | 0.275 | 30.25 | 23.11 | −1.66 | 6.35 | 9.13 | 6.55 | 112.95 | 241.73 | 506.86 | 1030.80 | 1374.19 | 1757.63 | 2149.25 | 3.63 | 7.7 | 18.11 | 17.90 | 18.56 | 19.59 | body weight compared with G1 vehicle [3]: significant higher on day 21; Body weight D14 [3]: 19.85 g; Body weight D17 [3]: 20.49 g; Body weight D21 [3]: 20.80 g |
| C[C@@]1(O)CCC[C@H]1n1c(=O)c(C(F)F)cc2cnc(NC3CCN(S(C)(=O)=O)CC3)nc21 [Comp. 5, (−)-6-(difluoromethyl)-8-((1R,2R)-2-hydroxy-2-methylcyclopentyl)-2-((1-(methylsulfonyl)piperidin-4-yl)amino)pyrido[2,3-d]pyrimidin-7(8H)-one, reference compound] | 0.367 | 37.46 | 42.30 | 39.66 | 42.80 | 43.13 | 44.1 | 109.77 | 225.24 | 405.37 | 654.51 | 880.11 | 1139.14 | 1327.79 | 2.22 | 33.3 | 18.43 | 18.07 | 18.12 | 17.82 | tumor volume compared with G1 vehicle on each day (HCC1806 s.c. xenografts): significant smaller tumor volume from day 7 to day 21; tumor weight at the end of the study, in words (HCC1806 s.c. xenografts): lighter tumor but no statistic significance; IC50 (CDK9/Cyclin T1): 3.44 µM; Body weight D14 [3]: 18.25 g; Body weight D17 [3]: 18.48 g; Body weight D21 [3]: 17.80 g |
| [2H]C([2H])([2H])c1cc2cnc(NC3CCN(S(C)(=O)=O)CC3)nc2n([C@@H]2CCC[C@@]2(C)O)c1=O [Comp. 37, (−)-8-((1R,2R)-2-hydroxy-2-methylcyclopentyl)-6-(methyl-d3)-2-((1-(methylsulfonyl)piperidin-4-yl)amino)pyrido[2,3-d]pyrimidin-7(8H)-one] | 1.2 | 42.52 | 49.20 | 46.10 | 44.43 | 48.73 | 46.8 | 109.89 | 216.01 | 370.15 | 596.52 | 858.29 | 1037.86 | 1269.08 | 2.10 | 28.9 | 18.25 | 18.23 | 18.10 | 18.01 | tumor volume compared with G1 vehicle on each day (HCC1806 s.c. xenografts): significant smaller tumor volume from day 3 to day 21; tumor weight at the end of the study, in words (HCC1806 s.c. xenografts): lighter tumor but no statistic significance; Body weight D14 [3]: 18.80 g; Body weight D17 [3]: 18.60 g; Body weight D21 [3]: 18.17 g |
